Experimental findings from patent publication US12478601B2, “Dietary product devoid of at least two non essential amino acids” (CANCER RESEARCH TECHNOLOGY LIMITED, priority 2016, dated 2025) are described below.

One data set relates to HCT116, DLD1 and SW480. The experiment in a line: Synergy score screen: chemotherapeutic agents in low serine, glycine, cysteine medium, cell counts.
For data set [1], the system named is intestinal tumour organoids derived from a VillincreER; APCfl/fl mouse. The experiment in a line: Intestinal tumour organoid growth (diameter) +/− serine and glycine, +/− drug. Type of data set: cell-based. As to conditions: two days. The procedure: ADF=Advanced DMEM F/12, with 2 mM glutamine, 1% of penicillin/streptomycin solution, 0.1% of AlbuMAX I BSA, 10 mM HEPES (all Gibco/Life Technologies). Adenomas were removed from the small intestine of mice and cut into smaller pieces and washed 5 times with ice cold PBS. Pieces were incubated in 5 mM EDTA for 10 min at 4° C. on a roller. Crypts were washed 2 times with ice cold PBS to remove EDTA and incubated in 10× trypsin for 30 min at 37° C. The crypt-enriched supernatant was collected and washed approximately 5 times with 5 ml ADF through mechanical pipetting. Crypts were pelleted via centrifugation at 1,200 rpm for 5 min. Crypts were re-suspended in growth factor reduced matrigel (BD Biosciences) and 20 μl was plated per well in a 12-well plate. Matrigel was allowed to solidify for 30 min in a 37° C. incubator before appropriate ADF was added supplemented with 0.05 μg/ml EGF and 0.1 μg/ml noggin (Total volume per well 1 ml). Crypts were split by harvesting in ice cold PBS and spun down at 600 rpm for 3 min. Supernatant was aspirated and the pellet dissociated with 100 μl ice cold PBS using mechanical pipetting. 5 ml of PBS was added to tube and spun own at 600 rpm for 3 min, repeated until supernatant was clear of debris. The final crypt pellet was re-suspended with growth factor reduced matrigel and plated as before. For serine/glycine starvation, amino acid free Advanced DMEM F/12 (Gibco/Life Technologies) was used to construct assay medium for organoids with or without serine and glycine, containing all other amino acids. […]
Organoids were seeded in the stated media with or without metformin/daunorubicin (both from Sigma) and allowed to grow for two days. Images for size quantification (performed using ImageJ software) were taken using a light microscope then organoids were fixed in 4% paraformaldehyde. ROS damage was assessed by immunostaining organoids with Anti-malondialdehyde (MDA) (Abcam, ab6463), with Alexa Fluor 594 secondary antibody (Thermo Fisher Scientific). […]

For data set [2], the system named is VillincreER; APCfl/fl organoids. The experiment in a line: Organoid malondialdehyde (MDA) immunostaining (ROS damage). Format: cell-based, mouse. The procedure:
Organoids were seeded in the stated media with or without metformin/daunorubicin (both from Sigma) and allowed to grow for two days. Images for size quantification (performed using ImageJ software) were taken using a light microscope then organoids were fixed in 4% paraformaldehyde. ROS damage was assessed by immunostaining organoids with Anti-malondialdehyde (MDA) (Abcam, ab6463), with Alexa Fluor 594 secondary antibody (Thermo Fisher Scientific). Images were captured on an Olympus FV1000 inverted laser scanning confocal microscope and MDA staining was quantified using ImageJ software.

For another data set, the system named is DLD1 and SW480 cells. In words: Metformin in vitro assay in APC-truncated colorectal cell lines, cell number. Format: cell-based, Human. Conditions: three days. As to the method:
DLD1 and SW480 cells were seeded into 24-well plates and allowed to adhere overnight. Cells were washed with PBS and received either assay medium with or without serine and glycine, with or without metformin at the stated doses and allowed to grow for three days. Representative wells were photographed using a light microscope and counted using a Casy TT cell counter (FIG. 19, panel d). For the dose-response experiment (FIG. 23, panel e) cells were seeded in the same way, either in assay medium without serine and glycine, or in assay medium with low serine and glycine (10 uM), triplicate wells were counted after three days.

Data set [3] deals with intestinal tumours (APCMin/+).
Description: (§1) On normal chow, dietary amino acids are derived from whole proteins contained in the raw ingredients (wheat, wheatfeed, barley, de-hulled extracted toasted soya, maize and fish meal), with a small amount of purified lysine added as a supplement. […] “Diet 2-Control” contained all essential amino acids plus serine, glycine, glutamine, arginine, cystine, tyrosine, alanine, proline, glutamate and asparagine; “Diet 2-No Ser, No Gly/Diet 2-SG-free” was the same as Diet 2-Control, but without serine and glycine, with the other amino acid levels increased proportionally to achieve the same total amino acid content. “Diet 2” formulations were used for the Eμ-Myc-Tigar^−/− cohort (FIG. 19, panel f). All other cohorts received the previously published “Diet 1” formulations.
Mus Musculus cohorts were housed in a barriered facility proactive in environmental enrichment. The Eμ-Myc11, ApcMin/+, Lgr5creER; Apcf1/f1 and Pdx1cre; KrasG12D; Trp53f1/+ or Trp53R172H/+ mice/models have been previously described. Mixed male and female populations were used for each genotype. […] Eμ-Myc, and ApcMin/+ mice were at least 20 generations C57BL/6J. Eμ-Myc; Tigarf1/f1 mice were at least 50% C57BL/6J. Mice were put on the appropriate diet at the following times: Eμ-Myc pure bred 60 days post-natal, Eμ-Myc; Tigarf1/f1 55 days post-natal, ApcMin/+80 days post-natal, Lgr5creER; Apcf1/f1 7 days post-induction, Pdx1cre; KrasG12D; Trp53f1/+ or Trp53R172H/+60 days post-natal. […] For the metformin experiment, ApcMin/+ mice were given 200 mg/kg/day in their drinking water, starting 4 days after the diet change. All mice were taken to clinical end-point. Intestines from ApcMin/+ mice were fixed in methacarn (4:2:1 ratio of methanol, chloroform, acetic acid) to facilitate scoring of tumour number and area (width×length).
Samples were prepared in cold (−20° C.) lysis solvent (LS) consisting of methanol, acetonitrile, and H2O (50:30:20). […] Tissue samples were snap frozen and stored at −80° C. Prior to lysis, frozen samples were weighed then homogenized in 1 ml cold LS using a Precellys homogeniser (Bertin Technologies). Lysates were cleared of protein by centrifugation and lysate concentrations were normalized post-homogenisation with LS based on weight. Extracts were analysed on an LCMS platform consisting of an Accela 600 LC system and an Exactive mass spectrometer (Thermo Scientific). A SeQuant ZIC-pHILIC column (2.1 mm×150 mm, 5 μm) (Merck) was used to separate the metabolites with the mobile phase mixed by A=Ammonium carbonate 20 mM (adjusted to pH 9.4) and B=Acetonitrile. A gradient program starting at 20% of A and after 2 mins linearly increasing to 80% at 17 min was used followed by washing and re-equilibration steps. The total run time of the method was 25 min. The LC stream was desolvated and ionised in the HESI probe. The Exactive mass spectrometer was operated in full scan mode over a mass range of 75-1,000 m/z at a resolution of 50,000 with polarity switching. The raw data was analysed by LCquan (Thermo Scientific) and MZMine 2.10 for metabolite identification and quantification.
Mus Musculus cohorts were housed in a barrier facility proactive in environmental enrichment. […] Mixed male and female populations were used for each genotype.
Data set [4] relates to lymphoma (based on Eμ-Myc expression).
Description: as §1
Mus Musculus cohorts were housed in a barriered facility proactive in environmental enrichment. The Eμ-Myc11, ApcMin/+, Lgr5creER; Apcf1/f1 and Pdx1cre; KrasG12D; Trp53f1/+ or Trp53R172H/+ mice/models have been previously described. Mixed male and female populations were used for each genotype. […] Eμ-Myc, and ApcMin/+ mice were at least 20 generations C57BL/6J. Eμ-Myc; Tigarf1/f1 mice were at least 50% C57BL/6J. Mice were put on the appropriate diet at the following times: Eμ-Myc pure bred 60 days post-natal, Eμ-Myc; Tigarf1/f1 55 days post-natal, ApcMin/+80 days post-natal, Lgr5creER; Apcf1/f1 7 days post-induction, Pdx1cre; KrasG12D; Trp53f1/+ or Trp53R172H/+60 days post-natal. […] For the metformin experiment, ApcMin/+ mice were given 200 mg/kg/day in their drinking water, starting 4 days after the diet change. All mice were taken to clinical end-point. […]
Samples were prepared in cold (−20° C.) lysis solvent (LS) consisting of methanol, acetonitrile, and H2O (50:30:20). […] Extracts were analysed on an LCMS platform consisting of an Accela 600 LC system and an Exactive mass spectrometer (Thermo Scientific). […] The raw data was analysed by LCquan (Thermo Scientific) and MZMine 2.10 for metabolite identification and quantification. […]
[5] abbreviates: average synergy score for three colorectal cells lines, drug at 0.01, 0.1 and 1 uM for 48 hours, low serine, glycine, cysteine (17-23 uM) vs complete medium (100 uM).

Entries after “also recorded” stand apart in the source; their conditions may differ. Structures can show the parent of a compound that is named as a salt. Where two headings read alike, the source gives them in different places.

Protocol for HCT116, DLD1 and SW480: Human cell lines HCT116, DLD1 and SW480 were seeded into 96-well plates either in complete medium containing serine, glycine and cysteine at 100 uM, with all other amino acids present, or low serine, glycine, cysteine (17-23 uM) medium with all other amino acids present. After 6 hours the stated chemotherapeutic agents were added (at doses of 0.01, 0.1 and 1 uM) to the wells and cells were incubated for a further 48 hours. After this time cells were formalin fixed and stained with a fluorescent nuclear stain for cell counting on an automated (Operetta) plate reader.

As to `COc1cc(Nc2c(C#N)cnc3cc(OCCCN4CCN(C)CC4)c(OC)cc23)c(Cl)cc1Cl` [Bosutinib], the “SYNERGY SCORE” value in the data set with HCT116, DLD1 and SW480 (setting [5]) is recorded as 1.95. As for `COc1cccc2c1C(=O)c1c(O)c3c(c(O)c1C2=O)C[C@@](O)(C(C)=O)C[C@@H]3O[C@H]1C[C@H](N)[C@H](O)[C@H](C)O1` [Daunorubicin], the tumour organoid growth entry in data set [1] (with serine & glycine starvation) was “complements serine and glycine starvation; also recorded: decrease tumour organoid growth”. In data set [2] (with serine & glycine starvation, two days), the “reactive oxygen species levels in tumour-organoids” value is “increase reactive oxygen species levels”.

Regarding `COc1cccc2c1C(=O)c1c(O)c3c(c(O)c1C2=O)C[C@@](O)(C(=O)CO)C[C@@H]3O[C@H]1C[C@H](N)[C@H](O)[C@H](C)O1` [Doxorubicin hydrochloride], the “SYNERGY SCORE” value in the data set on HCT116, DLD1 and SW480 (setting [5]) turned out to be 1.76. In the case of `Nc1cccc2c1CN(C1CCC(=O)NC1=O)C2=O` (centres unmarked) [Lenalidomide], the “SYNERGY SCORE” value in the data set on HCT116, DLD1 and SW480 (setting [5]) is listed as 1.94. Take `Cc1cc(Nc2ncc(Cl)c(Nc3ccccc3S(=O)(=O)C(C)C)n2)c(OC(C)C)cc1C1CCNCC1` [Ceritinib]: the “SYNERGY SCORE” value with HCT116, DLD1 and SW480 (setting [5]) worked out at 2.56. The same measure, in the same setting: the figure for `CC(C)C[C@H](NC(=O)[C@H](CCc1ccccc1)NC(=O)CN1CCOCC1)C(=O)N[C@@H](Cc1ccccc1)C(=O)N[C@@H](CC(C)C)C(=O)[C@@]1(C)CO1` [Carfilzomib] is 1.65. As for `Nc1nc(F)nc2c1ncn2[C@@H]1O[C@H](COP(=O)(O)O)[C@@H](O)[C@@H]1O` [Fludarabine phosphate], the “SYNERGY SCORE” value in the data set with HCT116, DLD1 and SW480 is on record as 2.76. Take `CNC(=O)c1cc(Oc2ccc(NC(=O)Nc3ccc(Cl)c(C(F)(F)F)c3)cc2)ccn1` [Sorafenib]: in the data set on HCT116, DLD1 and SW480 (setting [5]), the “SYNERGY SCORE” value amounted to 2.26. Turning to Arsenic trioxide, the “SYNERGY SCORE” value in the data set with HCT116, DLD1 and SW480 is recorded as 2.52. For the molecule `CC[C@H](Nc1ncnc2[nH]cnc12)c1nc2cccc(F)c2c(=O)n1-c1ccccc1` [Idelalisib], in the data set with HCT116, DLD1 and SW480 (setting [5]), the “SYNERGY SCORE” value is listed as 4.05. Still for that read-out and setting: the figure for `C=C1C[C@@H]2[C@H](CC[C@]3(C)C(=O)CC[C@@H]23)[C@@]2(C)C=CC(=O)C=C12` [Exemestane] is 2.14; for `CO[C@H]1C[C@@H]2CC[C@@H](C)[C@@](O)(O2)C(=O)C(=O)N2CCCC[C@H]2C(=O)O[C@H]([C@H](C)C[C@@H]2CC[C@@H](OC(=O)C(C)(CO)CO)[C@H](OC)C2)CC(=O)[C@H](C)/C=C(\C)[C@@H](O)[C@@H](OC)C(=O)[C@H](C)C[C@H](C)/C=C/C=C/C=C/1C` [Temsirolimus] it is 3.90; for `CO[C@H]1C[C@@H]2CC[C@@H](C)[C@@](O)(O2)C(=O)C(=O)N2CCCC[C@H]2C(=O)O[C@H]([C@H](C)C[C@@H]2CC[C@@H](OCCO)[C@H](OC)C2)CC(=O)[C@H](C)/C=C(\C)[C@@H](O)[C@@H](OC)C(=O)[C@H](C)C[C@H](C)/C=C/C=C/C=C/1C` [Everolimus] it is 3.33. Take `CS(=O)(=O)c1ccc(C(=O)Nc2ccc(Cl)c(-c3ccccn3)c2)c(Cl)c1` [Vismodegib]: the “SYNERGY SCORE” value with HCT116, DLD1 and SW480 is given as 1.53. With `CN(C)C(=N)N=C(N)N` [Metformin], the “organoid growth, interaction with serine and glycine starvation” value in data set [1] (low dose metformin) is “antagonizes serine and glycine starvation; also recorded: did not have a synergistic effect”. In data set [1] (metformin 1000 uM), the “organoid growth, interaction with serine starvation” value is reported as “synergise with serine starvation”. The “reactive oxygen species (ROS) levels” value in data set [2] (high dose metformin) is reported as “increase with high dose metformin”. In addition, the “reactive oxygen species (ROS) levels” value in data set [2] (low dose metformin) is given as “decrease with low dose metformin”. The cell number result in the data set on DLD1 and SW480 cells (metformin at 20 µM) is “trend for increased cell number”. Also, the “synergistic effect with serine/glycine starvation” value in the data set with DLD1 and SW480 cells (metformin at concentrations found in vivo) was “did not have a synergistic effect”. Besides, the “metformin levels in serum and tissue” value in data set [3] (200 mg/kg/day in drinking water, LCMS) is “relatively low; also recorded: too low to potentiate the anti-cancer effect”. For the same molecule, in data set [3] (metformin 200 mg/kg/day), the average tumour area result is “without a substantial change in average tumour area”; the “impact on systemic metabolism (serum glucose and lactate)” value is given as “minimal impact on systemic metabolism; also recorded: little impact on systemic metabolism”. Moreover, the “SYNERGY SCORE” value in the data set with HCT116, DLD1 and SW480 (setting [5]) is on record as 7.53. `O=C(CCCCCCC(=O)Nc1ccccc1)NO` [Vorinostat]: the “SYNERGY SCORE” value in the data set on HCT116, DLD1 and SW480 (setting [5]) was 4.94. As for `[H]/N=C(/N)N/C(=N/[H])NCCc1ccccc1` [phenformin], the tolerability entry in data set [4] (100 mg/kg/day by gavage, mice on normal diet) is “tolerated”. Besides, the “mice already recruited that did not succumb to toxicity” value in data set [4] (100 mg/kg/day with serine and glycine deficient diet) is reported as 7/14. The “survival, diet with phenformin compared to serine and glycine free diet alone” value in data set [4] (100 mg/kg/day, not statistically significant) is listed as “trend for improved survival”. As for `Cc1ccc(C(=O)Nc2ccc(CN3CCN(C)CC3)c(C(F)(F)F)c2)cc1C#Cc1cnc2cccnn12` [Ponatinib], the “SYNERGY SCORE” value in the data set on HCT116, DLD1 and SW480 was 1.00. For `CNC(=O)c1cc(Oc2ccc(NC(=O)Nc3ccc(Cl)c(C(F)(F)F)c3)c(F)c2)ccn1` [Regorafenib], the “SYNERGY SCORE” value in the data set on HCT116, DLD1 and SW480 (setting [5]) is 2.29.

As to `COc1cccc2c1C(=O)c1c(O)c3c(c(O)c1C2=O)C[C@@](O)(C(=O)CO)C[C@@H]3O[C@H]1C[C@H](N)[C@@H](O)[C@H](C)O1` [Epirubicin hydrochloride], the “SYNERGY SCORE” value in the data set with HCT116, DLD1 and SW480 (setting [5]) was found to be 1.40. Still for that read-out and setting: then `CN(C)C/C=C/C(=O)Nc1cc2c(Nc3ccc(F)c(Cl)c3)ncnc2cc1O[C@H]1CCOC1` [Afatinib], with 1.18.

In the case of `CC(C)(C#N)c1cc(Cn2cncn2)cc(C(C)(C)C#N)c1` [Anastrozole], in the data set with HCT116, DLD1 and SW480, the “SYNERGY SCORE” value was found to be 1.43. On to `C/C=C1\NC(=O)[C@H]2CSSCC/C=C/[C@H](CC(=O)N[C@H](C(C)C)C(=O)N2)OC(=O)[C@H](C(C)C)NC1=O` [Romidepsin], for which the “SYNERGY SCORE” value in the data set with HCT116, DLD1 and SW480 came out at 2.03. As to `COc1cc2nccc(Oc3ccc(NC(=O)C4(C(=O)Nc5ccc(F)cc5)CC4)cc3)c2cc1OC` [Cabozantinib], the “SYNERGY SCORE” value with HCT116, DLD1 and SW480 (setting [5]) came out at 4.51.

Regarding `O=C(c1cc(Cc2n[nH]c(=O)c3ccccc23)ccc1F)N1CCN(C(=O)C2CC2)CC1` [Olaparib], in the data set with HCT116, DLD1 and SW480 (setting [5]), the “SYNERGY SCORE” value was found to be 1.46. As to `N.N.[Cl][Pt][Cl]` [Cisplatin], in the data set with HCT116, DLD1 and SW480 (setting [5]), the “SYNERGY SCORE” value amounted to 1.79.
